US5789438A, “Inhibitors of farnesyl-protein transferase” (Merck & Co., Inc., priority 1997, dated 1998)
pIC50: −log10 of the molar value.

Molecular target: T1, human FPTase (Homo sapiens, UniProt P49354+P49356)
T1 construct: made in house
Assay: In vitro inhibition of human farnesyl-protein transferase ([3H]-FPP incorporation into Ras-CVIM)
Format: biochemical
Conditions: 100 nM Ras-CVIM, 30 min, read-out: IC50, inhibitory activity against human FPTase

SMILES	pIC50
CC(=O)O[C@H]1CC[C@]2(C)[C@H]3Cc4c(O)cc5c(c4O[C@@]3(C)CC[C@H]2C1(C)C)COC5=O [Compound II]	> 4.70
COC1OC(OC)c2c1cc(O)c1c2O[C@@]2(C)CC[C@H]3C(C)(C)[C@@H](OC(C)=O)CC[C@]3(C)[C@H]2C1 (some centres unmarked) [Compound I]	> 4.70
